# Like-named read-outs stand apart in the source and are kept apart here.
# Assays:
# [1] = system: THP1 cells; experiment: Combination drug screening, Cell Titer Glo, 10 × 10 matrix, THP1 cells; format: cell-based
# [2] = molecular target: T1, FLT3 K663Q (Homo sapiens, UniProt P36888, K663Q); experiment: DiscoverX KINOMEscan competition binding, FLT3 K663Q
# T1 construct: purchased DiscoverX (KINOMEscan)
# T1 sequence (P36888 27-993 K663Q): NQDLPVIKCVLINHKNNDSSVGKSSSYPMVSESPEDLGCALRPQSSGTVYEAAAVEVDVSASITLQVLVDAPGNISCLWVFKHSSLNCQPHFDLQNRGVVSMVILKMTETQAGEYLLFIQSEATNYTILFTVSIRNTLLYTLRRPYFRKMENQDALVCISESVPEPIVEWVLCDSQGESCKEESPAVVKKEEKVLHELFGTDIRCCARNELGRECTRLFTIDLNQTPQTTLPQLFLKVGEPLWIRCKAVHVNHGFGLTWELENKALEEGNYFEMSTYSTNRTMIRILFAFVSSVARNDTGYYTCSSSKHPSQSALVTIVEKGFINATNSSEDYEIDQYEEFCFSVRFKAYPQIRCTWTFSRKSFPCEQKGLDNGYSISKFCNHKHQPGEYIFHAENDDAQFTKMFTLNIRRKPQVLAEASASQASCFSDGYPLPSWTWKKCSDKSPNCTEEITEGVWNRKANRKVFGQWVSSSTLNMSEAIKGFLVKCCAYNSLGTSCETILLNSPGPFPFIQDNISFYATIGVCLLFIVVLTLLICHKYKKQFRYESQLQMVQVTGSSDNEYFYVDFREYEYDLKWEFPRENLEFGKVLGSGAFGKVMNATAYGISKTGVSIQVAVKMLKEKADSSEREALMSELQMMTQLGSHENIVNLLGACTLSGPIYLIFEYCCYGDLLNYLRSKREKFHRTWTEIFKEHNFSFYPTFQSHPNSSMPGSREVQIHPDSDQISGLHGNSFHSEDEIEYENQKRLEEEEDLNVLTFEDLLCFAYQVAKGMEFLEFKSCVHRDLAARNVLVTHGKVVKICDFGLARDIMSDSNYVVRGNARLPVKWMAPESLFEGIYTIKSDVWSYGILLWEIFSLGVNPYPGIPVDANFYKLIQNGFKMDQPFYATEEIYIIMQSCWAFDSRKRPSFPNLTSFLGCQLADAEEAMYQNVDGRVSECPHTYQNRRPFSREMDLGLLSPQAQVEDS
# [3] = molecular target: T2, IRAK4 (Homo sapiens, UniProt Q9NWZ3); experiment: Reaction Biology NanoBRET target engagement assay in HEK-293 cells, IRAK4; details: NanoBRET IRAK4 IC50, HEK-293 cells
# T2 sequence (Q9NWZ3 1-460): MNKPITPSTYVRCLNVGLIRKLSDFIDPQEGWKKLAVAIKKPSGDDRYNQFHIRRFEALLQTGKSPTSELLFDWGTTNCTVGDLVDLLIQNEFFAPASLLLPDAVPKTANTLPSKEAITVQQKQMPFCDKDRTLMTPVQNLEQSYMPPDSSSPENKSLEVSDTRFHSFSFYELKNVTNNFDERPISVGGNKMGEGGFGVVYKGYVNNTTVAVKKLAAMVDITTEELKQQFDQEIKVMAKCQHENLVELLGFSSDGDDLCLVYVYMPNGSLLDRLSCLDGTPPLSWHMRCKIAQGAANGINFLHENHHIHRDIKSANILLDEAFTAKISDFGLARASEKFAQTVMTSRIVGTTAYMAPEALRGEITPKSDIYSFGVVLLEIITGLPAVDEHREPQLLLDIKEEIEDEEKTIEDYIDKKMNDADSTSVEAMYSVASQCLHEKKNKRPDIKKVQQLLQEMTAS
# [4] = system: MOLM14 D835Y cells; experiment: cells; format: cell-based; details: Homo sapiens, MOLM-14, 48 h, 48 hours, Cell Titer Glo; read-out: MOLM14 D835Y IC50
# [5] = system: MOLM14(D835Y) cells; format: cell-based; details: MOLM14(D835Y) cells; for Excess HSA Score: 10 × 10
# [6] = combination with (+)-BAY-1251152
# [7] = combination with Eprenetapopt/APR-246
# [8] = combination with Venetoclax (ABT-199)
# [9] = with (+)-BAY-1251152, single compound range 0-10,000 nM or 0-20,000 nM
# [10] = with AMG-232, single compound range 0-10,000 nM or 0-20,000 nM
# [11] = with AZD-5363, single compound range 0-10,000 nM or 0-20,000 nM
# [12] = with Eprenetapopt/APR-246, single compound range 0-10,000 nM or 0-20,000 nM
# [13] = with Ivosidenib, single compound range 0-10,000 nM or 0-20,000 nM
# [14] = with Lenalidomide, single compound range 0-10,000 nM or 0-20,000 nM
# [15] = with Palbociclib, single compound range 0-10,000 nM or 0-20,000 nM
# [16] = with Prednisolone, single compound range 0-10,000 nM or 0-20,000 nM
# [17] = with SNDX-5613, single compound range 0-10,000 nM or 0-20,000 nM
# [18] = with TNO-155, single compound range 0-10,000 nM or 0-20,000 nM
# [19] = with Trametinib, single compound range 0-10,000 nM or 0-20,000 nM
# [20] = with Ulixertinib, single compound range 0-10,000 nM or 0-20,000 nM
# [21] = with Venetoclax (ABT-199), single compound range 0-10,000 nM or 0-20,000 nM
compound,measurement,setting,value
"F[C@H]1CCNC[C@@H]1Nc1cncc(-c2cnc3cc(OC4CC4)ccn23)n1 [Compound 12, 6-(7-cyclopropoxyimidazo[1,2-a]pyridin-3-yl)-N-((3S,4S)-4-fluoropiperidin-3-yl)pyrazin-2-amine]",Excess HSA Score,"[1]; THP1 cells, 10 × 10, combination with (+)-BAY-1251152",−730.8
same,Excess HSA Score,"[1]; THP1 cells, 10 × 10, combination with AMG-232",−0.2304
same,Excess HSA Score,"[1]; THP1 cells, 10 × 10, combination with AZD-5363",−798.3
same,Excess HSA Score,"[1]; THP1 cells, 10 × 10, combination with Eprenetapopt/APR-246",477.7
same,Excess HSA Score,"[1]; THP1 cells, 10 × 10, combination with Ivosidenib",−53.98
same,Excess HSA Score,"[1]; THP1 cells, 10 × 10, combination with Lenalidomide",−72.51
same,Excess HSA Score,"[1]; THP1 cells, 10 × 10, combination with Palbociclib",575.5
same,Excess HSA Score,"[1]; THP1 cells, 10 × 10, combination with Prednisolone",−176.7
same,Excess HSA Score,"[1]; THP1 cells, 10 × 10, combination with SNDX-5613",75.74
same,Excess HSA Score,"[1]; THP1 cells, 10 × 10, combination with TNO-155",−498.7
same,Excess HSA Score,"[1]; THP1 cells, 10 × 10, combination with Trametinib",300.014
same,Excess HSA Score,"[1]; THP1 cells, 10 × 10, combination with Ulixertinib",−95.31
same,Excess HSA Score,"[1]; THP1 cells, 10 × 10, combination with Venetoclax (ABT-199)",−1564
same,Comments,"[1]; THP1 cells, combination with AMG-232",Additive
same,Comments,"[1]; THP1 cells, combination with SNDX-5613",Antagonistic
same,Comments,"[1]; THP1 cells, combination with Venetoclax (ABT-199)",Synergistic
same,Kd,[2],13 nM
same,IC50,[3],1 nM
same,IC50,[4],34 nM
same,Excess HSA Score,[5]; [6],−346.5
same,Excess HSA Score,[5]; combination with AMG-232,−464.9
same,Excess HSA Score,[5]; combination with AZD-5363,−869.6
same,Excess HSA Score,[5]; [7],381.9
same,Excess HSA Score,[5]; combination with Ivosidenib,−10.93
same,Excess HSA Score,[5]; combination with Lenalidomide,176.4
same,Excess HSA Score,[5]; combination with Palbociclib,−72.57
same,Excess HSA Score,[5]; combination with Prednisolone,908.8
same,Excess HSA Score,[5]; combination with SNDX-5613,−187.4
same,Excess HSA Score,[5]; combination with TNO-155,−906.9
same,Excess HSA Score,[5]; combination with Trametinib,−87.67
same,Excess HSA Score,[5]; combination with Ulixertinib,256.8
same,Excess HSA Score,[5]; [8],−1232.2388
same,Comments,[5]; combination with Lenalidomide,Antagonistic
same,Comments,[5]; [8],Synergistic
"COc1cc2ncc(-c3ccnc(N[C@H]4CNCC[C@@H]4F)n3)n2nc1C1CC1 [Compound 51, 4-(6-cyclopropyl-7-methoxyimidazo[1,2-b]pyridazin-3-yl)-N-((3S,4S)-4-fluoropiperidin-3-yl)pyrimidin-2-amine]",Kd,[2],0.82 nM
same,IC50,[3],1 nM
same,IC50,[4],6 nM
"COc1cc2ncc(-c3ccnc(N[C@@H]4CCCNC4)n3)n2cc1C(C)(C)O [Compound 44, (R)-2-(7-methoxy-3-(2-(piperidin-3-ylamino)pyrimidin-4-yl)imidazo[1,2-a]pyridin-6-yl)propan-2-ol]",Comments,[1]; [9],Synergistic
same,Excess HSA Score,[1]; [9],−516.5
same,Comments,[1]; [10],Antagonistic
same,Excess HSA Score,[1]; [10],733.5
same,Comments,[1]; [11],Antagonistic
same,Excess HSA Score,[1]; [11],35.78
same,Comments,[1]; [12],Antagonistic
same,Excess HSA Score,[1]; [12],460.1
same,Comments,[1]; [13],Synergistic
same,Excess HSA Score,[1]; [13],−47.26
same,Comments,[1]; [14],Antagonistic
same,Excess HSA Score,[1]; [14],877.5
same,Comments,[1]; [15],Synergistic
same,Excess HSA Score,[1]; [15],−764
same,Comments,[1]; [16],Antagonistic
same,Excess HSA Score,[1]; [16],68.4575
same,Comments,[1]; [17],Antagonistic
same,Excess HSA Score,[1]; [17],337.7
same,Comments,[1]; [18],Synergistic
same,Excess HSA Score,[1]; [18],−62.85
same,Comments,[1]; [19],Synergistic
same,Excess HSA Score,[1]; [19],−453.2
same,Comments,[1]; [20],Synergistic
same,Excess HSA Score,[1]; [20],−572.2
same,Comments,[1]; [21],Synergistic
same,Excess HSA Score,[1]; [21],−1159
same,Kd,[2],2.9 nM
same,IC50,[3],< 0.5 nM
same,IC50,[4],11 nM
same,Excess HSA Score,[5]; [6],−808.4
same,Excess HSA Score,[5]; combination with AMG-232,−620.9
same,Excess HSA Score,[5]; combination with AZD-5363,−290.5
same,Excess HSA Score,[5]; [7],75.21
same,Excess HSA Score,[5]; combination with Ivosidenib,21.01
same,Excess HSA Score,[5]; combination with Lenalidomide,270.3924
same,Excess HSA Score,[5]; combination with Palbociclib,−370.2
same,Excess HSA Score,[5]; combination with Prednisolone,409.4
same,Excess HSA Score,[5]; combination with SNDX-5613,3.1084
same,Excess HSA Score,[5]; combination with TNO-155,−655.3
same,Excess HSA Score,[5]; combination with Trametinib,−420
same,Excess HSA Score,[5]; combination with Ulixertinib,−254.1
same,Excess HSA Score,[5]; [8],−1120.4885
same,Comments,[5]; combination with SNDX-5613,Antagonistic
same,Comments,[5]; [8],Synergistic

# Source: patent publication US20250154144A1 (CHILDREN'S HOSPITAL MEDICAL CENTER, priority 2021, published 2025)
